# Assay results reported in patent US9815836B2, “Macrocyclic compounds as IRAK1/4 inhibitors and uses thereof” (Merck Patent GmbH, priority 2015, dated 2017).
# Like-named read-outs stand apart in the source and are kept apart here.
# Experiments:
# IRAK1 = IRAK1 (Homo sapiens (Human), UniProt P51617); assay: IRAK1 enzymatic assay (ADP-Glo luminescence); format: biochemical
# Protocol: In this assay, IRAK1 hydrolyses ATP and autophosphorylates. Measurement of IRAK-1 inhibition is performed in 384-well format based on luminescence assay (ADP-Glo™ Kinase Assay from Promega). Purified human recombinant IRAK1 ([…]) and serial diluted compounds in DMSO (range of concentration from 10 μM to 0.5 nM) or controls (1% DMSO) are incubated for 15 minutes at RT in assay buffer containing 50 mM Hepes pH 7.0, Fatty acid-free BSA 0.1%, Dithiothreitol (DTT) 2 mM, MgCl2 10 mM, EGTA 0.5 mM, Triton X-100 0.01%. The kinase reaction is then initiated by the addition of ATP at a concentration of 1μM. After 2 hours of incubation at RT, the reaction is stopped and the unconsumed ATP depleted by the addition of ADP-Glo™ Reagent according to supplier instructions. After 40 minutes of incubation at RT, the Kinase Detection Reagent is then added to the assay plate according to supplier instructions. After 20 minutes of incubation at RT, the luminescence signal is measured with a luminometer (PerkinElmer Envision or equivalent reader).
# IRAK4 = IRAK4 (Homo sapiens (Human), UniProt Q9NWZ3); assay: IRAK4 enzymatic assay (ADP-Glo luminescence); format: biochemical; conditions: human purified recombinant His-TEV-IRAK4 (1-460), ATP 2 μM, STK1-biotin peptide 300 nM
# Chain of IRAK4 (Q9NWZ3 whole entry): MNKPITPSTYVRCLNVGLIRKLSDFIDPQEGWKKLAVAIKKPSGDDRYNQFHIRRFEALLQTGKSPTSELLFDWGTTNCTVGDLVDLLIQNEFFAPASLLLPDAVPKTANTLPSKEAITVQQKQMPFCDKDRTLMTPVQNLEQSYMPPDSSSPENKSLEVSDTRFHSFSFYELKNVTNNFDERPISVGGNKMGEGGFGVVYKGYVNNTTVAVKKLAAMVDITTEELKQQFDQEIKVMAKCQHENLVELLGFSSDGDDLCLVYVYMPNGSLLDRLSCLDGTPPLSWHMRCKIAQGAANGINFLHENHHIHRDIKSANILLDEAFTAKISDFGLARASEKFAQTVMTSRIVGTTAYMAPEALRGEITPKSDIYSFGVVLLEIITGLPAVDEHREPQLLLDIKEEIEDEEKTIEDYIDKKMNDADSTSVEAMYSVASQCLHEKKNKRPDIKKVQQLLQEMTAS
# Protocol: IRAK4 is a human purified recombinant enzyme (His-TEV-IRAK4 (1-460)).
# In this assay, IRAK4 hydrolyses ATP, autophosphorylates and phosphorylates a Serine/Threonine generic peptidic substrate (STK: 61ST1BLC from CisBio International). Measurement of IRAK-4 inhibition is performed in 384-well format based on a luminescence assay (ADP-Glo™ Kinase Assay from Promega). Purified human recombinant IRAK4 (0.3 μg/ml) and serial diluted compounds in DMSO (range of concentration from 10 μM to 0.5 nM) or controls (1% DMSO) are incubated for 15 minutes at RT in assay buffer containing 50 mM Hepes pH 7.0, Fatty acid-free BSA 0.1%, Dithiothreitol (DTT) 2 mM, MgCl2 10 mM, EGTA 0.5 mM, Triton X-100 0.01%, MnCl2 5 mM. The kinase reaction is then initiated by the addition of ATP (2 μM) and the peptidic substrate STK1-biotin peptide (300 nM). After 2 hours of incubation at RT, the reaction is stopped and the unconsumed ATP depleted by the addition of ADP-Glo™ Reagent according to supplier instructions. After 40 minutes of incubation at RT, the Kinase Detection Reagent is then added to the assay plate according to supplier instructions. After 20 minutes of incubation at RT, the luminescence signal is measured with a plate-reading luminometer (PerkinElmer Envision or equivalent reader).
# [1] = human purified recombinant His-TEV-IRAK1 (194-712), ATP 1 μM, read-out: IRAK1 IC50
# Chain of IRAK1 (P51617 194-712): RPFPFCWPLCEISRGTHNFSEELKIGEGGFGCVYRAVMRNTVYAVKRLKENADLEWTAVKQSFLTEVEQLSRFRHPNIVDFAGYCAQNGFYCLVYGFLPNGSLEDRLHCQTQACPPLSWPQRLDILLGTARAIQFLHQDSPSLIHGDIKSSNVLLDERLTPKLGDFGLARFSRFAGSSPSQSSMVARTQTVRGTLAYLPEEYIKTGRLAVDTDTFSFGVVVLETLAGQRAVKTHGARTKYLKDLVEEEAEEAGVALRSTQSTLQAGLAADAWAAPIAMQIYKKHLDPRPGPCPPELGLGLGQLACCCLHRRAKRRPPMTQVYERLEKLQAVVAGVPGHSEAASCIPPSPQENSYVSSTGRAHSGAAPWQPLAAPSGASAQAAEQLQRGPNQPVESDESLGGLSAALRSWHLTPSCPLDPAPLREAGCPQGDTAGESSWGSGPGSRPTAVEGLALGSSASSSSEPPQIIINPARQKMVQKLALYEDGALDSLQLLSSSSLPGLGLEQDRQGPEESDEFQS
IC50 (IRAK1; [1]) [nM],Structure (SMILES),IC50 (IRAK1) [nM],IC50 (IRAK4) [nM],"ring closure, yield after HPLC (the molecule shown is the open-chain precursor, multicomponent bond, 20-membered ring, Cs2CO3/KI, microwave, DMSO, 22.0 mM, 110.0 °C) [%]","ring closure, yield after HPLC (from NCCOCCn1cc(-c2cccc(C(=O)Nc3cn(C4CCOCC4)nc3C(=O)[O-])c2)cn1, amide bond, 17-membered ring, BOP/DIEA, DMF, 20.7 mM) [%]"
–,"Cn1cc2c(n1)C(=O)NCCC(O)C(O)CCn1cc(cn1)-c1cccc(n1)C(=O)N2 (stereo not drawn) [Compound 33, 8,9-dihydroxy-16-methyl-4,5,12,15,16,19,25-heptaazatetracyclo[19.3.1.1^2,^5.0^1^4,^1^8]hexacosa-1(24),2(26),3,14,17,21(25),22-heptaene-13,20-dione]",100 to 1000,< 100,–,–
–,"Cn1cc2c(n1)C(=O)NCC/C=C\CCn1cc(cn1)-c1cccc(n1)C(=O)N2 [Compound 27, (8Z)-16-methyl-4,5,12,15,16,19,25-heptaazatetracyclo[19.3.1.1^2,^5.0^1^4,^1^8]hexacosa-1(24),2(26),3,8,14,17,21(25),22-octaene-13,20-dione]",100 to 1000,< 100,–,–
–,"Cn1cc2c(n1)C(=O)NCCCCCCn1cc(cn1)-c1cccc(c1)C(=O)N2 [Compound 1, 16-methyl-4,5,12,15,16,19-hexaazatetracyclo[19.3.1.1^2,^5.0^1^4,^1^8]hexacosa-1(24),2(26),3,14,17,21(25),22-heptaene-13,20-dione]",100 to 1000,< 100,–,–
–,"Cn1cc2c(n1)C(=O)NC1CCN(CC1O)C(=O)OCCn1cc(cn1)-c1cccc(n1)C(=O)N2 (stereo not drawn) [Compound 21, 26-hydroxy-6-methyl-22-oxa-2,5,6,9,18,19,24,30-octaazapentacyclo[22.2.2.1^11,^1^5.1^1^6,^1^9.0^4,^8]triaconta-4,7,11(30),12,14,16(29),17-heptaene-3,10,23-trione]",1000 to 5000,100 to 1000,–,–
–,Cn1cc(NC(=O)c2cccc(-c3cnn(CCCl)c3)n2)c(C(=O)NC2CCNC[C@H]2O)n1 (stereo partly drawn),–,–,23.6,–
> 5000,"O=C1Nc2cn(C3CCOCC3)nc2C(=O)NCCOCCn2cc(cn2)-c2cccc1c2 [Compound 20, 15-(oxan-4-yl)-8-oxa-4,5,11,14,15,18-hexaazatetracyclo[18.3.1.1^2,^5.0^13,^1^7]pentacosa-1(23),2(25),3,13,16,20(24),21-heptaene-12,19-dione]",–,> 5000,–,21.8
–,"O=C1Nc2cn(C3CCOCC3)nc2C(=O)NCCS(=O)(=O)CCCn2cc(cn2)-c2cccc1n2 [Compound 15, 16-(oxan-4-yl)-9λ^6-thia-4,5,12,15,16,19,25-heptaazatetracyclo[19.3.1.1^2,^5.0^1^4,^1^8]hexacosa-1(24),2(26),3,14,17,21(25),22-heptaene-9,9,13,20-tetrone]",100 to 1000,< 100,–,–
–,"O=C1Nc2cn(C3CCN(CCO)CC3)nc2C(=O)NCCCCCCn2cc(cn2)-c2cccc1n2 [Compound 22, 16-[1-(2-hydroxyethyl)piperidin-4-yl]-4,5,12,15,16,19,25-heptaazatetracyclo[19.3.1.1^2,^5.0^1^4,^1^8]hexacosa-1 (24),2(26),3,14,17,21(25),22-heptaene-13,20-dione]",100 to 1000,< 100,–,–
> 5000,"Cn1cc2c(n1)C(=O)NCC1CN(CCO1)C(=O)OCCn1cc(cn1)-c1cccc(n1)C(=O)N2 (stereo not drawn) [Compound 8, 20-methyl-8,13-dioxa-4,5,10,16,19,20,23,29-octaazapentacyclo[23.3.1.1^2,^5.1^1^0,^1^4.0^1^8,^22]hentriaconta-1(28),2(31),3,18,21,25(29),26-heptaene-9,17,24-trione]",–,100 to 1000,–,–
< 100,"Cn1cc2c(n1)C(=O)NCCCC#CCn1cc(cn1)-c1cccc(n1)C(=O)N2 [Compound 38, 16-methyl-4,5,12,15,16,19,25-heptaazatetracyclo[19.3.1.1^2,^5.0^1^4,^1^8]hexacosa-1(24),2(26),3,14,17,21 (25),22-heptaen-7-yne-13,20-dione]",–,< 100,–,–
> 5000,"O=C1Nc2cn(C3CCOCC3)nc2C(=O)NCCCCCn2cc(cn2)-c2cccc1c2 [Compound 6, 15-(oxan-4-yl)-4,5,11,14,15,18-hexaazatetracyclo[18.3.1.1^2,^5.0^13,^1^7]pentacosa-1(23),2(25),3,13,16,20(24),21-heptaene-12,19-dione]",–,> 5000,–,–
–,"Cn1cc2c(n1)C(=O)NCC1CCN(CCn3cc(cn3)-c3cccc(n3)C(=O)N2)C1 (stereo not drawn) [Compound 9, 17-methyl-4,5,8,13,16,17,20,26-octaazapentacyclo[20.3.1.1^2,^5.1^8,^11.0^1^5,^1^9]octacosa-1(25),2(28),3,15,18,22(26),23-heptaene-14,21-dione]",1000 to 5000,< 100,–,–
–,"CN1CCCNC(=O)c2nn(C)cc2NC(=O)c2cccc(n2)-c2cnn(c2)CC1 [Compound 11, 8,16-dimethyl-4,5,8,12,15,16,19,25-octaazatetracyclo[19.3.1.1^2,^5.0^1^4,^1^8]hexacosa-1(24),2(26),3,14,17,21(25),22-heptaene-13,20-dione]",1000 to 5000,< 100,–,–
–,"Cn1cc2c(n1)C(=O)NCC(O)C(O)CCCn1cc(cn1)-c1cccc(n1)C(=O)N2 (stereo not drawn) [Compound 31, 9,10-dihydroxy-16-methyl-4,5,12,15,16,19,25-heptaazatetracyclo[19.3.1.1^2,^5.0^1^4,^1^8]hexacosa-1(24),2(26),3,14,17,21(25),22-heptaene-13,20-dione]",100 to 1000,< 100,–,–
–,"CS(=O)(=O)N1CCC(n2cc3c(n2)C(=O)NCCCCCCn2cc(cn2)-c2cccc(n2)C(=O)N3)CC1 [Compound 17, 6-(1-methanesulfonylpiperidin-4-yl)-4,5,12,15,16,19,25-heptaazatetracyclo[19.3.1.1^2,^5.0^1^4,^1^8]hexacosa-1(24),2(26),3,14,17,21(25),22-heptaene-13,20-dione]",100 to 1000,< 100,–,–
